Experimental data as given in ChEMBL document CHEMBL1147112 (2007).
Converted amounts (≈) assume the structure as drawn. The source made the active and inactive calls. The rule behind the calls is not given here.

Experiments:
Staphylococcus aureus [1] = assay: Antimicrobial activity against methicillin-resistant Staphylococcus aureus ATCC 43300; assay type: functional
Staphylococcus aureus [2] = assay: Antimicrobial activity against methicillin-susceptible Staphylococcus aureus ATCC 29213; assay type: functional
Staphylococcus aureus [3] = assay: Antimicrobial activity against methicillin-resistant Staphylococcus aureus 8111; assay type: functional
Staphylococcus aureus [4] = assay: Antimicrobial activity against methicillin-resistant Staphylococcus aureus ATCC 43300 in human monocyte-derived macrophages at 0.5 ug/ml assessed as bacterial viability after 24 hrs; assay type: functional
Staphylococcus aureus [5] = assay: Antimicrobial activity against methicillin-susceptible Staphylococcus aureus ATCC 29213 in human monocyte-derived macrophages at 5 ug/ml assessed as bacterial viability after 4 hrs; assay type: functional
Staphylococcus aureus [6] = assay: Antimicrobial activity against methicillin-resistant Staphylococcus aureus ATCC 43300 in human monocyte-derived macrophages at 0.25 ug/ml assessed as bacterial viability after 2 hrs; assay type: functional
Staphylococcus aureus [7] = assay: Antimicrobial activity against methicillin-resistant Staphylococcus aureus ATCC 43300 in human monocyte-derived macrophages at 2.5 ug/ml assessed as bacterial viability after 24 hrs; assay type: functional
Staphylococcus aureus [8] = assay: Antimicrobial activity against methicillin-susceptible Staphylococcus aureus ATCC 29213 in human monocyte-derived macrophages at 2.5 ug/ml assessed as bacterial viability after 24 hrs; assay type: functional
Staphylococcus aureus [9] = assay: Antimicrobial activity against methicillin-susceptible Staphylococcus aureus ATCC 29213 in human monocyte-derived macrophages at 0.25 ug/ml assessed as bacterial viability after 4 hrs; assay type: functional
Staphylococcus aureus [10] = assay: Antimicrobial activity against methicillin-resistant Staphylococcus aureus ATCC 43300 in human monocyte-derived macrophages at 2.5 ug/ml assessed as bacterial viability after 2 hrs; assay type: functional
Staphylococcus aureus [11] = assay: Extracellular killing of Staphylococcus aureus 8111 in MH-2 broth at 0.5 ug/ml assessed as suppression of number of viable bacteria after 24 hrs; assay type: functional, organism-based
Staphylococcus aureus [12] = assay: Antimicrobial activity against methicillin-susceptible Staphylococcus aureus ATCC 29213 in human monocyte-derived macrophages at 5 ug/ml assessed as bacterial viability after 24 hrs; assay type: functional
Staphylococcus aureus [13] = assay: Antimicrobial activity against methicillin-susceptible Staphylococcus aureus ATCC 29213 in human monocyte-derived macrophages at 0.5 ug/ml assessed as bacterial viability after 24 hrs; assay type: functional
Staphylococcus aureus [14] = assay: Antimicrobial activity against methicillin-resistant Staphylococcus aureus ATCC 43300 in human monocyte-derived macrophages at 0.25 ug/ml assessed as bacterial viability after 24 hrs; assay type: functional
Staphylococcus aureus [15] = assay: Antimicrobial activity against methicillin-resistant Staphylococcus aureus ATCC 43300 in human monocyte-derived macrophages at 5 ug/ml assessed as bacterial viability after 2 hrs; assay type: functional
Staphylococcus aureus [16] = assay: Antimicrobial activity against methicillin-resistant Staphylococcus aureus ATCC 43300 in human monocyte-derived macrophages at 2.5 ug/ml assessed as bacterial viability after 4 hrs; assay type: functional
Staphylococcus aureus [17] = assay: Antimicrobial activity against methicillin-susceptible Staphylococcus aureus ATCC 29213 in human monocyte-derived macrophages at 2.5 ug/ml assessed as bacterial viability after 2 hrs; assay type: functional
Staphylococcus aureus [18] = assay: Antimicrobial activity against methicillin-susceptible Staphylococcus aureus ATCC 29213 in human monocyte-derived macrophages at 0.5 ug/ml assessed as bacterial viability after 4 hrs; assay type: functional
Staphylococcus aureus [19] = assay: Antimicrobial activity against methicillin-resistant Staphylococcus aureus ATCC 43300 in human monocyte-derived macrophages at 5 ug/ml assessed as bacterial viability after 4 hrs; assay type: functional
Staphylococcus aureus [20] = assay: Antimicrobial activity against methicillin-resistant Staphylococcus aureus ATCC 43300 in human monocyte-derived macrophages at 0.5 ug/ml assessed as bacterial viability after 4 hrs; assay type: functional
Staphylococcus aureus [21] = assay: Antimicrobial activity against methicillin-susceptible Staphylococcus aureus ATCC 29213 in human monocyte-derived macrophages at 0.5 ug/ml assessed as bacterial viability after 2 hrs; assay type: functional
Staphylococcus aureus [22] = assay: Antimicrobial activity against methicillin-susceptible Staphylococcus aureus ATCC 29213 in human monocyte-derived macrophages at 0.25 ug/ml assessed as bacterial viability after 24 hrs; assay type: functional
Staphylococcus aureus [23] = assay: Antimicrobial activity against methicillin-susceptible Staphylococcus aureus ATCC 29213 in human monocyte-derived macrophages at 0.25 ug/ml assessed as bacterial viability after 2 hrs; assay type: functional
Staphylococcus aureus [24] = assay: Antimicrobial activity against methicillin-susceptible Staphylococcus aureus ATCC 29213 in human monocyte-derived macrophages at 2.5 ug/ml assessed as bacterial viability after 4 hrs; assay type: functional
Staphylococcus aureus [25] = assay: Antimicrobial activity against methicillin-resistant Staphylococcus aureus ATCC 43300 in human monocyte-derived macrophages at 0.25 ug/ml assessed as bacterial viability after 4 hrs; assay type: functional
Staphylococcus aureus [26] = assay: Antimicrobial activity against methicillin-susceptible Staphylococcus aureus ATCC 29213 in human monocyte-derived macrophages at 5 ug/ml assessed as bacterial viability after 2 hrs; assay type: functional
Staphylococcus aureus [27] = assay: Antimicrobial activity against methicillin-resistant Staphylococcus aureus ATCC 43300 in human monocyte-derived macrophages at 5 ug/ml assessed as bacterial viability after 24 hrs; assay type: functional
Staphylococcus aureus [28] = assay: Antimicrobial activity against methicillin-resistant Staphylococcus aureus ATCC 43300 in human monocyte-derived macrophages at 0.5 ug/ml assessed as bacterial viability after 2 hrs; assay type: functional

Row | Compound | MIC (Staphylococcus aureus [1]) | MIC (Staphylococcus aureus [2]) | MIC (Staphylococcus aureus [3]) | log10CFU/ml (Staphylococcus aureus [4]) | log10CFU/ml (Staphylococcus aureus [5]) | log10CFU/ml (Staphylococcus aureus [6]) | log10CFU/ml (Staphylococcus aureus [7]) | log10CFU/ml (Staphylococcus aureus [8]) | log10CFU/ml (Staphylococcus aureus [9]) | log10CFU/ml (Staphylococcus aureus [10]) | log10CFU/ml (Staphylococcus aureus [12]) | log10CFU/ml (Staphylococcus aureus [13]) | log10CFU/ml (Staphylococcus aureus [14]) | log10CFU/ml (Staphylococcus aureus [15]) | log10CFU/ml (Staphylococcus aureus [16]) | log10CFU/ml (Staphylococcus aureus [18]) | log10CFU/ml (Staphylococcus aureus [19]) | log10CFU/ml (Staphylococcus aureus [20]) | log10CFU/ml (Staphylococcus aureus [21]) | log10CFU/ml (Staphylococcus aureus [22]) | also measured
1 | CO[C@H]1/C=C/O[C@@]2(C)Oc3c(C)c(O)c4c(O)c(c(/C=N/N5CCN(C)CC5)c(O)c4c3C2=O)NC(=O)/C(C)=C\C=C\[C@H](C)[C@H](O)[C@@H](C)[C@@H](O)[C@@H](C)[C@H](OC(C)=O)[C@@H]1C [RIFAMPIN] | 0.015 µg/mL (≈ 0.0182 µM) | 0.015 µg/mL (≈ 0.0182 µM) | 0.015 µg/mL (≈ 0.0182 µM) |  |  |  |  |  |  |  |  |  |  |  |  |  |  |  |  |  | 
2 | GENTAMICIN | 128 µg/mL | 1 µg/mL | 2 µg/mL |  |  |  |  |  |  |  |  |  |  |  |  |  |  |  |  |  | 
3 | CCCCCCCCCC(=O)N[C@@H](Cc1c[nH]c2ccccc12)C(=O)N[C@H](CC(N)=O)C(=O)N[C@@H](CC(=O)O)C(=O)N[C@@H]1C(=O)NCC(=O)N[C@@H](CCCN)C(=O)N[C@@H](CC(=O)O)C(=O)N[C@H](C)C(=O)N[C@@H](CC(=O)O)C(=O)NCC(=O)N[C@H](CO)C(=O)N[C@@H]([C@H](C)CC(=O)O)C(=O)N[C@@H](CC(=O)c2ccccc2N)C(=O)O[C@@H]1C | 0.5 µg/mL (≈ 0.309 µM) | 0.5 µg/mL (≈ 0.309 µM) | 0.5 µg/mL (≈ 0.309 µM) | 1.93 | -2.05 | 0.14 | -0.83 | -0.32 | 1.84 | -1.35 | -0.52 | 2 | 2.1 | -1.52 | -1.48 | 0.76 | -1.8 | 0 | -0.59 | 2.02 | Activity (Staphylococcus aureus [11]): Active; log10CFU/ml (Staphylococcus aureus [17]): -1.7; log10CFU/ml (Staphylococcus aureus [23]): 0.57; log10CFU/ml (Staphylococcus aureus [24]): -1.75; log10CFU/ml (Staphylococcus aureus [25]): 1.27; log10CFU/ml (Staphylococcus aureus [26]): -2; log10CFU/ml (Staphylococcus aureus [27]): -1.06
4 | CN[C@H](CC(C)C)C(=O)N[C@H]1C(=O)N[C@@H](CC(N)=O)C(=O)N[C@H]2C(=O)N[C@H]3C(=O)N[C@H](C(=O)N[C@H](C(=O)O)c4cc(O)cc(O)c4-c4cc3ccc4O)[C@H](O)c3ccc(c(Cl)c3)Oc3cc2cc(c3O[C@@H]2O[C@H](CO)[C@@H](O)[C@H](O)[C@H]2O[C@H]2C[C@](C)(N)[C@H](O)[C@H](C)O2)Oc2ccc(cc2Cl)[C@H]1O [VANCOMYCIN] |  |  |  | 2.23 | -1.14 | 0.6 | -1.6 | -0.46 | 2.14 | -0.38 | -0.85 | 2.17 | 2.47 | -0.51 | -0.88 | 1.85 | -0.84 | 0.03 | 0.51 | 2.17 | log10CFU/ml (Staphylococcus aureus [28]): -0.39; log10CFU/ml (Staphylococcus aureus [17]): -0.86; log10CFU/ml (Staphylococcus aureus [23]): 0.98; log10CFU/ml (Staphylococcus aureus [24]): -1.07; log10CFU/ml (Staphylococcus aureus [25]): 1.58; log10CFU/ml (Staphylococcus aureus [26]): -0.85; log10CFU/ml (Staphylococcus aureus [27]): -1.62
5 | Cc1onc(-c2ccccc2)c1C(=O)N[C@@H]1C(=O)N2[C@@H]1SC(C)(C)[C@@H]2C(=O)O [OXACILLIN] | 16 µg/mL (≈ 39.9 µM) | 0.5 µg/mL (≈ 1.25 µM) | 64 µg/mL (≈ 159 µM) | -2.52 | -1.72 | -0.85 | -2.7 | -2.7 | -0.05 | -0.94 | -2.7 | -1.54 | -1.02 | -1.27 | -1.32 | -1.51 | -1.75 | -1.35 | -0.48 | -1.47 | log10CFU/ml (Staphylococcus aureus [28]): -0.85; log10CFU/ml (Staphylococcus aureus [23]): 0.21; log10CFU/ml (Staphylococcus aureus [24]): -2.05; log10CFU/ml (Staphylococcus aureus [26]): -0.91; log10CFU/ml (Staphylococcus aureus [27]): -3
